ChEMBL document CHEMBL3046875, “Potential cytotoxic and apoptosis inducing agents: synthesis and evaluation of methoxy-substituted chalcones against human lung and cervical cancers” (Med Chem Res, 2013)

Assays:
HeLa [1] = test: Cell cycle arrest in Homo sapiens (human) HeLa cells assessed as accumulation at sub G0 phase at IC50 after 48 hr by propidium iodide staining-based flow cytometric analysis (reference value: 0.88%); type: functional
HeLa [2] = test: Cell cycle arrest in Homo sapiens (human) HeLa cells assessed as accumulation at G0/G1 phase at IC50 after 48 hr by propidium iodide staining-based flow cytometric analysis (reference value: 63.3%); type: functional
HCT-15 = test: Cytotoxicity against Homo sapiens (human) HCT15 cells assessed as cell viability after 72 hr by MTT assay; type: functional, cell-based; conditions: HCT-15, 72 h
HeLa [3] = test: Cell cycle arrest in Homo sapiens (human) HeLa cells assessed as accumulation at G2/M phase at IC50 after 48 hr by propidium iodide staining-based flow cytometric analysis (reference value: 22.68%); type: functional
HeLa [4] = test: Cytotoxicity against Homo sapiens (human) HeLa cells assessed as cell viability after 72 hr by MTT assay; type: functional, cell-based
HeLa [5] = test: Cell cycle arrest in Homo sapiens (human) HeLa cells assessed as accumulation at S phase at IC50 after 48 hr by propidium iodide staining-based flow cytometric analysis (reference value: 14.14%); type: functional
A549 [6] = test: Cytotoxicity against Homo sapiens (human) A549 cells assessed as cell viability after 72 hr by MTT assay; type: functional, cell-based; conditions: A549, 72 h
A549 [7] = test: Cell cycle arrest in Homo sapiens (human) A549 cells assessed as accumulation at G2/M phase at IC50 after 48 hr by propidium iodide staining-based flow cytometric analysis (reference value: 11.03%); type: functional
A549 [8] = test: Cell cycle arrest in Homo sapiens (human) A549 cells assessed as accumulation at S phase at IC50 after 48 hr by propidium iodide staining-based flow cytometric analysis (reference value: 12.83%); type: functional
A549 [9] = test: Cell cycle arrest in Homo sapiens (human) A549 cells assessed as accumulation at sub G0 phase at IC50 after 48 hr by propidium iodide staining-based flow cytometric analysis (reference value: 1.37%); type: functional
A549 [10] = test: Cell cycle arrest in Homo sapiens (human) A549 cells assessed as accumulation at G0/G1 phase at IC50 after 48 hr by propidium iodide staining-based flow cytometric analysis (reference value: 74.9%); type: functional
HeLa [11] = test: Cell cycle arrest in Homo sapiens (human) HeLa cells assessed as accumulation at sub G0 phase at 2 uM after 48 hr by propidium iodide staining-based flow cytometric analysis (reference value: 0.88%); type: functional
A549 [12] = test: Cell cycle arrest in Homo sapiens (human) A549 cells assessed as accumulation at sub G0 phase at 2 uM after 48 hr by propidium iodide staining-based flow cytometric analysis (reference value: 1.37%); type: functional
HeLa [13] = test: Cell cycle arrest in Homo sapiens (human) HeLa cells assessed as accumulation at S phase at 2 uM after 48 hr by propidium iodide staining-based flow cytometric analysis (reference value: 14.14%); type: functional
A549 [14] = test: Cell cycle arrest in Homo sapiens (human) A549 cells assessed as accumulation at G2/M phase at 2 uM after 48 hr by propidium iodide staining-based flow cytometric analysis (reference value: 11.03%); type: functional
HeLa [15] = test: Cell cycle arrest in Homo sapiens (human) HeLa cells assessed as accumulation at G2/M phase at 2 uM after 48 hr by propidium iodide staining-based flow cytometric analysis (reference value: 22.68%); type: functional
HeLa [16] = test: Cell cycle arrest in Homo sapiens (human) HeLa cells assessed as accumulation at G0/G1 phase at 2 uM after 48 hr by propidium iodide staining-based flow cytometric analysis (reference value: 63.3%); type: functional

SMILES | IC50 (HCT-15) [µM] | IC50 (HeLa [4]) [µM] | IC50 (A549 [6]) [µM] | also measured
COc1cc(/C=C/C(=O)c2ccccc2F)cc(OC)c1 | 0.0209 | 0.0629 | 0.0436 | Activity (HeLa [1]): 9.11%; Activity (HeLa [2]): 70.2%; Activity (HeLa [3]): 26.68%; Activity (HeLa [5]): 18.21%; Activity (A549 [7]): 2.22%; Activity (A549 [8]): 9.85%; Activity (A549 [9]): 61.59%; Activity (A549 [10]): 2.66%
COc1ccc(C(=O)/C=C/c2c(OC)cc(OC)cc2OC)c(F)c1 | > 100 | > 100 | > 100 | 
COc1cc(/C=C/C(=O)c2ccc(OC)cc2F)cc(OC)c1 | 0.0553 | 0.243 | 0.101 | 
COc1ccc(C(=O)/C=C/c2cc(OC)c(OC)cc2OC)c(F)c1 | 0.0722 | > 100 | 0.202 | 
COc1ccc(C(=O)/C=C/c2ccc(OC)cc2OC)c(F)c1 | 0.0722 | 0.26 | > 100 | 
COc1ccc(C(=O)/C=C/c2cc(OC)c(OC)c(OC)c2)c(F)c1 | 0.0505 | 0.144 | 0.108 | 
COc1ccc(C(=O)/C=C/c2ccc(OC)c(OC)c2OC)c(F)c1 | 0.0317 | 0.211 | 0.108 | 
COc1ccc(/C=C/C(=O)c2ccccc2F)c(OC)c1 | 0.0559 | 0.175 | 0.0873 | Activity (HeLa [1]): 29.37%; Activity (HeLa [2]): 22.61%; Activity (HeLa [3]): 56.9%; Activity (HeLa [5]): 12.64%; Activity (A549 [7]): 6.18%; Activity (A549 [8]): 59.98%; Activity (A549 [9]): 20.48%; Activity (A549 [10]): 5.64%
COc1cc(OC)c(OC)cc1/C=C/C(=O)c1ccccc1F | 0.0553 | 0.293 | 0.079 | 
COc1ccc(OC)c(/C=C/C(=O)c2ccccc2F)c1 | 0.0611 | 0.0961 | 0.114 | Activity (HeLa [1]): 27.52%; Activity (HeLa [2]): 7.9%; Activity (HeLa [3]): 35.28%; Activity (HeLa [5]): 0.94%; Activity (A549 [7]): 16.84%; Activity (A549 [8]): 89.78%; Activity (A549 [9]): 20.31%; Activity (A549 [10]): 1.36%
COc1cc(OC)c(/C=C/C(=O)c2ccccc2F)c(OC)c1 | 0.079 | 0.0506 | > 100 | 
COc1cc(/C=C/C(=O)c2ccccc2F)cc(OC)c1OC | 0.134 | 0.228 | > 100 | 
COc1cccc2c1C(=O)c1c(O)c3c(c(O)c1C2=O)C[C@@](O)(C(=O)CO)C[C@@H]3O[C@H]1C[C@H](N)[C@H](O)[C@H](C)O1.Cl [DOXORUBICIN HYDROCHLORIDE] |  |  |  | Activity (HeLa [11]): 61.55%; Activity (A549 [12]): 1.34%; Activity (HeLa [13]): 55.74%; Activity (A549 [14]): 0.98%; Activity (HeLa [15]): 36.19%; Activity (HeLa [16]): 30.86%
